Source: patent US20230330254A1 (Regeneron Pharmaceuticals, Inc., priority 2022, published 2023)
Read-outs that look alike come from different tables or passages of the source. *1 amine or outer side, *2 acyl side, *3 side chain or, on linkers, in order; H or OH if unused. Where a SMILES comes first, the peptide text is derived from it. Side-chain parts run from the residue outwards. [ ]: non-standard residue; d: D form. The star is where a group is joined. PEG24 = NCCOCCOCCOCCOCCOCCOCCOCCOCCOCCOCCOCCOCCOCCOCCOCCOCCOCCOCCOCCOCCOCCOCCOCCOCCC(=O)O; Bip(2'-Et-4'-O(CH2)4NH2) = CCc1cc(OCCCCN[*:3])ccc1-c1ccc(C[C@H](N[*:1])C(=O)[*:2])cc1; Bip(2'-Et,4'-O(CH2)4N3) = CCc1cc(OCCCCN=[N+]=[N-])ccc1-c1ccc(C[C@H](N)C(=O)O)cc1; Malonyl(2,2-Me2,histaminyl) = CC(C)(C(=O)NCCc1cnc[nH]1)C(=O)*; PEG12 = NCCOCCOCCOCCOCCOCCOCCOCCOCCOCCOCCOCCOCCC(=O)O; Nva(5-(3,5-Me2Ph)) = Cc1cc(C)cc(CCC[C@H](N)C(=O)O)c1; Ala(1H-tetrazol-5-yl) = N[C@@H](Cc1nnn[nH]1)C(=O)O; αMePhe(2-F) = C[C@](N)(Cc1ccccc1F)C(=O)O; DBCO = C1#Cc2ccccc2N(*)Cc2ccccc21; Suc = O=C(CCC(=O)[*:2])[*:1]; X2 = CC(C)(C(N)=O)C(=O)*

Columns and labels:
human GLP1R = human GLP1R (Homo sapiens, UniProt P43220); test: Luciferase reporter assay, HEK293/CRE-Luc/hGLP1R (Example 17); type: cell-based; set-up: engineered to express full-length human GLP1R, cynomolgus GLP1R; expressed in transfected cells; host or cells: HEK293/CRE-Luc; conditions: for S/N: highest RLU / RLU of untreated wells; for Relative Potency (% M2361 EC50) / Relative Signal:Noise (% M2361): relative to M2361 of the same experiment
Text: (§1) To test the activity of GLP1R agonist payloads, GLP1R agonist linker-payloads (LPs), and anti-GLP1R antibody tethered drug conjugates (ATDCs) of the invention, a cell-based cAMP responsive luciferase reporter assay was developed. To generate the assay cell line, the firefly luciferase gene was placed under the control of a cAMP response element (CRE) located upstream of a minimal promoter and transfected into HEK293 cells and referred to herein as HEK293/CRE-Luc cells.
(§2) Three-fold serial dilutions of free payloads or LPs were prepared in 100% DMSO, transferred to fresh assay media, and added to the cells at a final constant DMSO concentration of 0.2%. The last well in the plate served as a blank control containing only the assay media and 0.2% DMSO (untreated well) and was plotted as a continuation of the 3-fold serial dilution. Four to six hours later, luciferase activity was determined after the addition of One-Glo™ reagent (Promega, Cat #E6130) to each well. Relative light units (RLUs) were measured on an Envision luminometer (PerkinElmer) and EC50 values were determined using a four-parameter logistic equation over a 12-point dose response curve (GraphPad Prism). The signal to noise (S/N) was determined by taking the ratio of the highest RLU on the dose response curve to the RLU in the untreated wells. Data was generated across several experiments (A-E) with M2361 serving as a reference standard in each experiment to calculate the payload relative potency ((M2361 EC50/payload EC50)*100)) and relative S/N ((payload SN/M2361 SN)*100)).

HEK293/CRE-Luc cells = test: Luciferase reporter assay, HEK293/CRE-Luc cells without GLP1R (Example 17); type: cell-based, human; conditions: HEK293/CRE-Luc cells without hGLP1R, payloads and linker-payloads; for EC50: read-out: EC50
Text: as §1, §2

[1] = HEK293/CRE-Luc/hGLP1R, payloads and linker-payloads, experiments A-E, M2361 repeated in each, read-out: EC50

Sequence of human GLP1R (P43220 24-463): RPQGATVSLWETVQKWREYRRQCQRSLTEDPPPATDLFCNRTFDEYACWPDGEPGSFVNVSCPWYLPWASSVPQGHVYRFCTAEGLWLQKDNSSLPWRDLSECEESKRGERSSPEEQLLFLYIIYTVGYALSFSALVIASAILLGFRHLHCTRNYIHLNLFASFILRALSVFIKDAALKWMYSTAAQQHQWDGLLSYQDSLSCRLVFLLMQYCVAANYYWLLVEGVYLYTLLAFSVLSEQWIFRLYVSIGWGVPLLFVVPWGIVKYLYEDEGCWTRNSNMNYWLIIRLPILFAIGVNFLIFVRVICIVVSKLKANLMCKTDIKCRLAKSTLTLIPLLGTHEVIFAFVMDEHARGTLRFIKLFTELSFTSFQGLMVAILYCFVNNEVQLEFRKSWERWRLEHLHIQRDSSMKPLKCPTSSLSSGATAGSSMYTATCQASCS

Row | Compound | S/N (human GLP1R; HEK293/CRE-Luc/hGLP1R) | EC50 (human GLP1R; [1]) [nM] | Relative Potency (% M2361 EC50) (human GLP1R; HEK293/CRE-Luc/hGLP1R) [%] | Relative Signal:Noise (% M2361) (human GLP1R; HEK293/CRE-Luc/hGLP1R) [%] | S/N (HEK293/CRE-Luc cells) | EC50 (HEK293/CRE-Luc cells) [nM] | EC50 (human GLP1R; text b1830, read-out: EC50 in HEK293/CRE-Luc/hGLP1R cells) [nM]
1 | CCc1cc(OCCCCN)ccc1-c1ccc(C[C@H](NC(=O)[C@H](CC(=O)O)NC(=O)[C@H](CO)NC(=O)[C@@H](NC(=O)[C@](C)(Cc2ccccc2F)NC(=O)[C@@H](NC(=O)CNC(=O)[C@H](Cc2nn[nH]n2)NC(=O)C2(C)CCN(CCc3cnc[nH]3)C2=O)[C@@H](C)O)[C@@H](C)O)C(=O)N[C@@H](CCCc2cc(C)cc(C)c2)C(N)=O)cc1 (stereo in doubt) [P14] | 74.9 | 0.184 | 2.9 | 113.9 | 1.6 | > 200 | 
2 | CCc1cc(OCCCCNC(=O)CCOCCOCCOCCOCCOCCOCCOCCOCCOCCOCCOCCOCCNC(=O)CCC(=O)N2Cc3ccccc3C#Cc3ccccc32)ccc1-c1ccc(C[C@H](NC(=O)[C@H](CC(=O)O)NC(=O)[C@H](CO)NC(=O)[C@@H](NC(=O)[C@](C)(Cc2ccccc2F)NC(=O)[C@@H](NC(=O)CNC(=O)[C@H](Cc2nn[nH]n2)NC(=O)C(C)(C)C(=O)NCCc2cnc[nH]2)[C@@H](C)O)[C@@H](C)O)C(=O)N[C@@H](CCCc2cc(C)cc(C)c2)C(N)=O)cc1 [LP3, DIBAC-suc-PEG12-P9] ({Malonyl(2,2-Me2,histaminyl)}-[Ala(1H-tetrazol-5-yl)]GT[αMePhe(2-F)]TSD[Bip(2'-Et-4'-O(CH2)4NH2)]([PEG12-Suc-DBCO])[Nva(5-(3,5-Me2Ph))]-NH2) | 293.2 | 0.0976 | 28.0 | 124.3 |  |  | 
3 | CCc1cc(OCCCCNC(=O)CCOCCOCCOCCOCCOCCOCCOCCOCCOCCOCCOCCOCCOCCOCCOCCOCCOCCOCCOCCOCCOCCOCCOCCOCCNC(=O)CCC(=O)N2Cc3ccccc3C#Cc3ccccc32)ccc1-c1ccc(C[C@H](NC(=O)[C@H](CC(=O)O)NC(=O)[C@H](CO)NC(=O)[C@@H](NC(=O)[C@](C)(Cc2ccccc2F)NC(=O)[C@@H](NC(=O)CNC(=O)[C@H](Cc2nn[nH]n2)NC(=O)C(C)(C)C(N)=O)[C@@H](C)O)[C@@H](C)O)C(=O)N[C@@H](CCCc2cc(C)cc(C)c2)C(N)=O)cc1 [LP13, DIBAC-suc-PEG24-P4] (X2-[Ala(1H-tetrazol-5-yl)]GT[αMePhe(2-F)]TSD[Bip(2'-Et-4'-O(CH2)4NH2)]([PEG24-Suc-DBCO])[Nva(5-(3,5-Me2Ph))]-NH2) | 79.3 | 4.83 | 0.2 | 110.2 | 1.3 | > 20 | 
4 | CCc1cc(OCCCCNC(=O)[C@H](CO)NC(=O)CNC(=O)CNC(=O)CNC(=O)CNC(=O)CCC(=O)N2Cc3ccccc3C#Cc3ccccc32)ccc1-c1ccc(C[C@H](NC(=O)[C@H](CC(=O)O)NC(=O)[C@H](CO)NC(=O)[C@@H](NC(=O)[C@](C)(Cc2ccccc2F)NC(=O)[C@@H](NC(=O)CNC(=O)[C@H](Cc2nn[nH]n2)NC(=O)C(C)(C)C(N)=O)[C@@H](C)O)[C@@H](C)O)C(=O)N[C@@H](CCCc2cc(C)cc(C)c2)C(N)=O)cc1 [LP14, DIBAC- suc-G4S- P4] | 78.1 | 0.366 | 2.2 | 108.6 | 1.3 | > 20 | 
5 | CCc1cc(OCCCCNC(=O)[C@H](CO)NC(=O)CNC(=O)CNC(=O)CNC(=O)CNC(=O)[C@H](CO)NC(=O)CNC(=O)CNC(=O)CNC(=O)CNC(=O)CCC(=O)N2Cc3ccccc3C#Cc3ccccc32)ccc1-c1ccc(C[C@H](NC(=O)[C@H](CC(=O)O)NC(=O)[C@H](CO)NC(=O)[C@@H](NC(=O)[C@](C)(Cc2ccccc2F)NC(=O)[C@@H](NC(=O)CNC(=O)[C@H](Cc2nn[nH]n2)NC(=O)C(C)(C)C(=O)NCCc2cnc[nH]2)[C@@H](C)O)[C@@H](C)O)C(=O)N[C@@H](CCCc2cc(C)cc(C)c2)C(N)=O)cc1 [LP17, DIBAC- suc-G4S- G4S-P9] | 258.0 | 0.0542 | 50.4 | 109.4 |  |  | 
6 | CCc1cc(OCCCCN=[N+]=[N-])ccc1-c1ccc(C[C@H](NC(=O)[C@H](CC(=O)O)NC(=O)[C@H](CO)NC(=O)[C@@H](NC(=O)[C@](C)(Cc2ccccc2F)NC(=O)[C@@H](NC(=O)CNC(=O)[C@@H](N)Cc2nn[nH]n2)[C@@H](C)O)[C@@H](C)O)C(=O)N[C@@H](CCCc2cc(C)cc(C)c2)C(N)=O)cc1 [M2383] (H-[Ala(1H-tetrazol-5-yl)]GT[αMePhe(2-F)]TSD[Bip(2'-Et,4'-O(CH2)4N3)][Nva(5-(3,5-Me2Ph))]-NH2) | 293.3 | > 200 | 0.0 | 89.4 | 1.8 | > 200 | > 20
7 | CCc1cc(OCCCCNC(=O)CCOCCOCCOCCOCCOCCOCCOCCOCCOCCOCCOCCOCCOCCOCCOCCOCCOCCOCCOCCOCCOCCOCCOCCOCCNC(=O)CCC(=O)N2Cc3ccccc3-c3nn[nH]c3-c3ccccc32)ccc1-c1ccc(C[C@H](NC(=O)[C@H](CC(=O)O)NC(=O)[C@H](CO)NC(=O)[C@@H](NC(=O)[C@](C)(Cc2ccccc2F)NC(=O)[C@@H](NC(=O)CNC(=O)[C@H](Cc2nn[nH]n2)NC(=O)C(C)(C)C(=O)NCCc2cnc[nH]2)[C@@H](C)O)[C@@H](C)O)C(=O)N[C@@H](CCCc2cc(C)cc(C)c2)C(C)=O)cc1 [M2547] | 267.8 |  | 38.6 | 81.7 |  |  | 
